Test results: BindingDB's records for patent US11912703 (Bristol Myers Squibb, 2024)

Tests used:
Experiment in all cases: TLR7/8/9 Inhibition Reporter Assays
Toll-like receptor 7 = target: T1, Toll-like receptor 7 (Homo sapiens, UniProt Q9NYK1)
T1 sequence (Q9NYK1 whole entry): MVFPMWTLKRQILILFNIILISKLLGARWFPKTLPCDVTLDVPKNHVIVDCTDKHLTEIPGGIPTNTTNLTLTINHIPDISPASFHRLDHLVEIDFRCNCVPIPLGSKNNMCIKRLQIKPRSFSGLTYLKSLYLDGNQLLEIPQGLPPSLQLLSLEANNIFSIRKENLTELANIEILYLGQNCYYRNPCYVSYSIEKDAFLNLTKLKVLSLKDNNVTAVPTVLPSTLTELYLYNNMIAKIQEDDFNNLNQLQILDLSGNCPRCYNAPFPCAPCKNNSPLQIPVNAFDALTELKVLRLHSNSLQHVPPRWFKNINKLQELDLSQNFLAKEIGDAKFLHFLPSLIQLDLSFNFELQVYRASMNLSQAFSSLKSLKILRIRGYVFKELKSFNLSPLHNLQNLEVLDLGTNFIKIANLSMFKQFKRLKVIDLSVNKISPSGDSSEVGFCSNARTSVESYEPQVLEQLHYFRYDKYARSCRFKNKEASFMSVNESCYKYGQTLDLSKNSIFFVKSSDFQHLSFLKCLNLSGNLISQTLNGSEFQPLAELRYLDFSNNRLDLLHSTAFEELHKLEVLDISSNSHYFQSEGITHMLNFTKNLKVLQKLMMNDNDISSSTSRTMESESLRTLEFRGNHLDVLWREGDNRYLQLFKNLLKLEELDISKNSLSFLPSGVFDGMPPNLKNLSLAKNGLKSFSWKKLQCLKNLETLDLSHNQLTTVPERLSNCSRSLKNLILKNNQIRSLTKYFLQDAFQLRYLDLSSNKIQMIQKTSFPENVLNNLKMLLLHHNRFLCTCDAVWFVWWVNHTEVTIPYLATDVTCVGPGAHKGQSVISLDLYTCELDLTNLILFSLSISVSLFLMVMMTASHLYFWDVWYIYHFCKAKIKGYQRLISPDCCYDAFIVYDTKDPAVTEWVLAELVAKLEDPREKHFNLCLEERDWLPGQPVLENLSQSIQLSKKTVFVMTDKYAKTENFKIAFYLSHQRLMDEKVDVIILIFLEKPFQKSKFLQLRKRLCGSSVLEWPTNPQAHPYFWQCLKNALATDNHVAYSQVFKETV
Experimental: (§1) HEK-Blue-cells (Invivogen) overexpressing human TLR7, TLR8 or TLR9 receptors were used for screening inhibitors of these receptors using an inducible SEAP (secreted embryonic alkaline phosphatase) reporter gene under the control of the IFN-β minimal promoter fused to five NF-κB and AP-1-binding sites. Briefly, cells are seeded into Greiner 384 well plates (15000 cells per well for TLR7, 20,000 for TLR8 and 25,000 for TLR9) and then treated with test compounds in DMSO to yield a final dose response concentration range of 0.05 nM-50 μM. […] After a 22 hour incubation at 37 C., 500 CO2, SEAP levels are determined with the addition of HEK-Blue Detection reagent (Invivogen), a cell culture medium that allows for detection of SEAP, according to manufacturer's specifications. The percent inhibition is determined as the 00 reduction in the HEK-Blue signal present in wells treated with agonist plus DMSO alone compared to wells treated with a known inhibitor.

Toll-like receptor 9 = target: T2, Toll-like receptor 9 (Homo sapiens, UniProt Q9NR96)
T2 sequence (Q9NR96 whole entry): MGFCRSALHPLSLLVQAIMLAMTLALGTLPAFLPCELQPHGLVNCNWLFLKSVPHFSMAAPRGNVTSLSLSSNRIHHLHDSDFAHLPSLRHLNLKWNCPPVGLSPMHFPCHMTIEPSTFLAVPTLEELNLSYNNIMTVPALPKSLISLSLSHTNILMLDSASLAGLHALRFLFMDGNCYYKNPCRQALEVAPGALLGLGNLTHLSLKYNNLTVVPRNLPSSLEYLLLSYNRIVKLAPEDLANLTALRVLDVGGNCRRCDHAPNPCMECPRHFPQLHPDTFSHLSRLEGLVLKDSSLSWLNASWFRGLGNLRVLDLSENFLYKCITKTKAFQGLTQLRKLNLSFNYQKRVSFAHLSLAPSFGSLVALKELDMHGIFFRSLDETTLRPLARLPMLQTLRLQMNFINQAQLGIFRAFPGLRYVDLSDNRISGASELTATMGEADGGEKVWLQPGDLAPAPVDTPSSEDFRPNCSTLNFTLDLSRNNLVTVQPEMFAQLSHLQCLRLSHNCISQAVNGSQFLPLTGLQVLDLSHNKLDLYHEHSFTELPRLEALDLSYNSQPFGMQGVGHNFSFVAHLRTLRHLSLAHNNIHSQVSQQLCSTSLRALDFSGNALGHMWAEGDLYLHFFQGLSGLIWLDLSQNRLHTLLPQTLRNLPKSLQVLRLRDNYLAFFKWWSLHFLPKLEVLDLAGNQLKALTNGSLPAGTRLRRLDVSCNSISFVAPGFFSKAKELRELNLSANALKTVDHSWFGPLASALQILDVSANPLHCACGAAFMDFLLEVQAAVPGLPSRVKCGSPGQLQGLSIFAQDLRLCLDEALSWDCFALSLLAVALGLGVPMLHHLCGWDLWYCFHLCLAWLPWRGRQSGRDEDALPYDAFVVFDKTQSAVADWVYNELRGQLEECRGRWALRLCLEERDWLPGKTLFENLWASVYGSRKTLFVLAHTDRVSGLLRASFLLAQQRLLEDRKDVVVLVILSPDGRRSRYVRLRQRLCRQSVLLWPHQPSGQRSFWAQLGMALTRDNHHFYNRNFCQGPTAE
Experimental: as §1

Toll-like receptor 8 = target: T3, Toll-like receptor 8 (Homo sapiens, UniProt Q9NR97)
T3 sequence (Q9NR97 whole entry): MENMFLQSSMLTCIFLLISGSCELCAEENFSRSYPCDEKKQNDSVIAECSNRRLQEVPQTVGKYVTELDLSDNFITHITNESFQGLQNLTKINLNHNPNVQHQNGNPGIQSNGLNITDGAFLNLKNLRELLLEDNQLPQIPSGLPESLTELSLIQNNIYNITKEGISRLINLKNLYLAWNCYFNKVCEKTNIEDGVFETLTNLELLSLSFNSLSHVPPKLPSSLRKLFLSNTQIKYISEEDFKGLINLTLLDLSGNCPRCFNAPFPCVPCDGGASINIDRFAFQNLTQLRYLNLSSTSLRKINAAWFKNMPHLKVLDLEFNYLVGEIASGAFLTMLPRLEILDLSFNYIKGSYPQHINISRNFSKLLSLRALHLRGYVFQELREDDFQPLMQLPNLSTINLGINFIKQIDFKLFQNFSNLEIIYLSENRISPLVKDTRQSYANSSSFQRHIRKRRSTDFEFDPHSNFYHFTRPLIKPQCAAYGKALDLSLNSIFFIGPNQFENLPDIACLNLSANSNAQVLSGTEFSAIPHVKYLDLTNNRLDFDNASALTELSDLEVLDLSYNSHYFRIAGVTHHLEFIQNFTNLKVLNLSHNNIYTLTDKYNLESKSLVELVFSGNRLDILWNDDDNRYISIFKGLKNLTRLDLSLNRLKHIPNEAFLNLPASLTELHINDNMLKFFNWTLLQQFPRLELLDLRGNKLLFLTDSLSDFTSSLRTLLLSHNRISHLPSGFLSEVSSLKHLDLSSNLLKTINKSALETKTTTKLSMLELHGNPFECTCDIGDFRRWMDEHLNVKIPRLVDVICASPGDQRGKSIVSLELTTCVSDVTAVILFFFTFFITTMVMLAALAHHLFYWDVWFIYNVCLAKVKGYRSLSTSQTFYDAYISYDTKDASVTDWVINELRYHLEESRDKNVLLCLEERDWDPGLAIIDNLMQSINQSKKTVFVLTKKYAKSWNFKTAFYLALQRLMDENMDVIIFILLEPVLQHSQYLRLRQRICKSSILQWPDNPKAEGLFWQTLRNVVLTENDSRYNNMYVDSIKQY
Experimental: as §1

| IC50 (Toll-like receptor 7) [nM] | IC50 (Toll-like receptor 9) [nM] | IC50 (Toll-like receptor 8) [nM] | Structure (SMILES) |
| --- | --- | --- | --- |
| 19 | > 50000 | 12 | COc1cc(-c2[nH]c3cnc(N4CCN(C5COC5)CC4)cc3c2C(C)C)cn2ncnc12 [US11912703, Example 303] |
| 27 | 2870 | 8.5 | CNC(=O)CN1CCN(c2cc3c(C(C)C)c(-c4cc(OC)c5ncnn5c4)[nH]c3cn2)CC1 [US11912703, Example 288] |
| 26 | 2030 | 23 | Cc1c(-c2[nH]c3cnc(C4CCC(N5CC(CO)(CO)C5)CC4)c(F)c3c2C(C)C)cn2ncnc2c1C (configuration not stated) [US11912703, Example 266] |
| 3.7 | 14000 | 58 | CNCC(=O)N1CCN(c2cc3c(C(C)C)c(-c4cc(OC)c5ncnn5c4)[nH]c3cn2)CC1 [US11912703, Example 289] |
